Data taken from PMC4427575, “Functional screening system for yeast-secreted peptides acting on G-protein coupled receptors” (AMB Express, 2015).

System: class A GPCR SST receptor
Experiment: Effect of FLAG fusion on somatostatin (data not shown)
Settings: result in words

somatostatin with FLAG fusion: FLAG fusion of somatostatin, endogenous circular peptide agonist acting on class A GPCR SST receptor
effect of the FLAG fusion: beneficial effect
